From publication PMC10804612, “In vivo validation of psilacetin as a prodrug yielding modestly lower peripheral psilocin exposure than psilocybin” (Frontiers in Psychiatry, 2024)

How the values were obtained:
head twitch responses = test system: head twitch responses; design: method as in PMID 33860183; conditions: equimolar basis; cited from earlier work
5-HT2A receptor = test system: 5-HT2A receptor; design: method as in PMID 36407948, PMID 33860183; conditions: in vitro; cited from earlier work
[1] = Plasma psilocin by LC-MS/MS after intraperitoneal psilocybin or psilacetin fumarate
[2] = cited from earlier work

SMILES	head twitch response potency (head twitch responses) [µmol/kg]	receptor potency, fold lower than that of psilocin (5-HT2A receptor)	k el ([1]; both, C57Bl6/J, mouse, plasma, ip) [s⁻¹]	half-life ([1]; both, C57Bl6/J, mouse, plasma, ip, psilocin half-life (T1/2), plasma psilocin from psilocybin or psilacetin, mice) [min]	plasma psilocin concentration by 4 h after administration ([1]; lower limit of quantitation 0.1 ng/mL, approximately 6 half-lives)	psilocin half-life ([1]; plasma psilocin, mice)	terminal elimination rate of psilocin, range ([1]; range across tested conditions)	plasma concentrations in human pharmacokinetic studies [2] [ng/mL]
CC(=O)Oc1cccc2[nH]cc(CCN(C)C)c12 [psilacetin, 4-acetoxy-N,N-dimethyltryptamine]	1.12	10- to 20 fold	–	–	–	–	–	–
CN(C)CCc1c[nH]c2cccc(O)c12 [psilocin]	0.81	–	0.000433	~30	near or below the lower limit of quantitation	approximately one-half	0.020–0.038 min^1	–
CN(C)CCc1c[nH]c2cccc(OP(=O)(O)O)c12 [psilocybin]	–	–	–	–	–	–	–	5 to 50
